Here are results for two compounds from US20200046788A1, “COMPOSITIONS AND METHODS FOR TREATMENT OF INTESTINAL INFLAMMATION AND COLON CANCER” (University of Louisville Research Foundation, Inc., priority 2016, published 2020).

One experiment deals with BMDCs. The protocol: (§1) Generation of mouse and human DCs. For the generation of mouse DCs, bone marrow cells were harvested from the femurs and tibias of mice and cultured in 6-well tissue culture plates (Costar) for 8 days in complete medium supplemented with 20 ng/ml GM-CSF and 10 ng/ml IL-4. BDNs, BDN-derived lipid or SFN was added to some wells on day 0. To obtain human DCs, peripheral blood mononuclear cells were isolated from healthy donors by Ficoll-Hypaque Plus (GE Healthcare). These studies were approved by the Institutional Review Board of University of Louisville. Monocytes were purified by a discontinuous Percoll gradient (GE Healthcare) and positive selection with the Monocyte Isolation kit (purity, >90%; Miltenyi Biotec). Monocytes were cultured in RPMI-1640 complete medium supplemented with 10% (vol/vol) heat-inactivated PCS, gentamicin ([…]), 2-mercaptoethanol (50 μM) and L-glutamine (2 mM; all from Gibco) containing IL-4 (5 ng/ml; Sigma) and recombinant human GM-CSF (35 ng/ml; Sigma) with or without SFN (10 μM). In some experiments, DCs were exposed for 24 h to LPS (100 ng/ml) with or without SFN.

The test system of a further experiment is CD4+ T cells. Here is the method:
as §1

In experiment [1] the test system is human monocyte-derived DCs. As to conditions: LPS 100 ng/ml, western blot. The protocol:
Western blot analysis. […] Images have been cropped for presentation.
as §1

The next experiment relates to DSS-induced colitis. The experiment can be described thus: Transfer of BMDCs treated with LN SFN knock-out / knock-in nanoparticles into mice with DSS colitis. The format is in vivo, mouse. The protocol: FIGS. 7A-7F include graphs and images showing that BDN SFN protects colitis by inducing regulatory DCs, including graphs and images showing: (FIG. 7A) the lipids extracted from BDN-derived liposome-like nanoparticles (LN) or LN with SFN knock-out (LN-SFN^−/− or knock-in (LN-SFN^+/+) and a standard SFN were separated on a thin-layer chromatography plate and developed, where a representative image was scanned using an Odyssey Scanner; (FIGS. 7B-7D) BMDCs that were treated with CBA (20 μg/ml) for 24-48 hr in the presence of DMSO, LN-SFN^−/− or LN-SFN^+/+ and were injected i.v. […] (FIG. 7E) cytokine analysis by qRT-PCR of RNA recovered from colonic LPL1; and (FIG. 7F) the cell number of CD11b^+ DCs isolated from colon and MLN in DSS-induced colitis after adoptive transfer, where data are mean±SEM. (n=5), *P<0.05, **P<0.01 (Student's t-test). Lipid extraction, TLC and lipidomic analysis. Total lipid extraction from BDNs was performed according to the method of Bligh and Dyer, and the lipids were dissolved in chloroform or methanol for analysis. […] Developed plates were initially air-dried, then sprayed with CuSO4-phosphoric acid reagent (10% CuSO4 in 8% phosphoric acid), and followed by charring at 100° C. for 10 min. […] Total lipids were determined using the phosphate assay as described previously. […] Colitis was assessed as described above.

A further experiment concerns MC38 colon cancer cells. The experiment can be described thus: MC38 colon cancer cells treated with SFN or BDN-derived lipids (RT-PCR). The format is cell-based, mouse. Here is the method: RNA extraction and PCR. Total RNA was isolated from the small intestine and colon or tumor tissue using the Qiagen RNeasy RNA isolation Kit and was used to synthesize cDNA. RNA (1 μg) was reverse-transcribed with Superscript III and random primers (Invitrogen). For quantitation of genes of interest, cDNA samples were amplified in a CFX96 Realtime System (Bio-Rad Laboratories, Hercules, Calif., USA) using SYBR Green Master Mix (Invitrogen) and specific primers (Table 2) according to the manufacturer's instructions. Fold changes in mRNA expression between treatments and controls were determined by the […] as described. Results for each sample were normalized to the concentration of GAPDH mRNA measured in the same samples and expressed as fold increase over baseline levels, which are set at a value of 1. Differences between groups were determined using a two-sided Student's t-test and one-way ANOVA. Error bars on plots represent±SEM, unless otherwise noted. All primers were purchased from Eurofins MWG Operon.

Another experiment relates to intestinal tumorigenesis. Here is the method:
Polyamine pools and Enzyme analyses. Tumor tissue was removed from intestine and was snap-frozen and stored at −70° C. Following removal of tumors, the normal small intestinal and colonic mucosa was scraped with a glass slide and snap-frozen. Frozen tissues were crushed into a fine powder. Specimens were homogenized in 1.2N perchloric acid and centrifuged to obtain the soluble supernatant extracts for polyamine analyses. Intracellular polyamine pools and acetylated polyamine pools were extracted with 1.2N perchloric acid, dansylated with dansyl chloride. The derivatized polyamines were separated on and analyzed using high-performance liquid chromatography on 150×4.6 mm ZORBAX SB-C18 column (Agilent) using methods described elsewhere. Polyamines were also quantitated by ELISA kit (Mybiosource, # MBS094198). For analysis of the enzyme activity, intestinal mucosal samples (4 mm^2) were immediately transferred to vials containing 0.5 ml of an ice-cold buffer [50 mM Tris-HCl (pH 7.5), 0.1 mM EDTA, and 0.1 mM pyridoxal phosphate)] and then homogenized and centrifuged. SSAT and ODC activities were determined by using C-labeled substrates and scintillation counting of end products produced as described previously (31) (or Cancer research SSAT mice).

The mark [2] stands for this setting: SFN 10 μM + GM-CSF vs GM-CSF alone.

Take `C[S+]([O-])CCCCN=C=S` (stereo not drawn) [SFN, Sulforaphane]: in the experiment with BMDCs (LPS 18 h, vs LPS alone), the “IL-10 production (ELISA)” value is on record as “more IL-10” and the “IL-12, IL-23 production (ELISA)” value is on record as “produced less IL-12, IL-23”. Also, in the experiment with BMDCs (setting [2]), the “expression of CD11c” value is given as “lower expression of CD11c” and the “expression of PD-L1” value is recorded as “higher expression of PD-L1”. Besides, in the experiment with CD4+ T cells (vs DC^DMSO), the “CD25 on CD4+ T cells induced by DC^SFN” value is on record as “lower expression” and the “PD-1 on CD4+ T cells induced by DC^SFN” value was “higher levels”. In the experiment with CD4+ T cells (vs LPS-treated DC^DMSO), the “IFN-γ production by CD4+ T cells primed with LPS-DC^SFN” value is “less IFN-γ” and the “IL-10 production by CD4+ T cells primed with LPS-DC^SFN” value was “more IL-10”. Further, the “IFN-γ production by CD4 T cells primed with DC^SFN” value in the experiment with CD4+ T cells (without LPS, vs DC^DMSO) was “negligible production of IFN-γ”. Further, in experiment [1], the “phosphorylation of AMPK at Thr172” value is given as “increased phosphorylation of AMPK at Thr172”; the “phosphorylation of S6 and p70S6K” value is “decreased S6 phosphorylation”. Moreover, the “numbers of transferred BMDC reaching the MLNs and colon” value in the experiment with DSS-induced colitis was “lower numbers”. In the experiment on MC38 colon cancer cells (RT-PCR, vs DMSO), the “expression of CSN8 and ODC” value was “inhibited”; the “expression of Nrf2 and SSAT1” value was “strongly activated”. The “increase in SSAT1 caused by SFN” value in the experiment with MC38 colon cancer cells (knockdown of both Nrf2 and CSN8) is on record as “significantly inhibited the increase”.
For `NCCCCN` [putrescine], the “polyamines pool in the small intestine” value with intestinal tumorigenesis (1% in drinking water) was “large increase”. Moreover, the tumor number entry in the experiment on intestinal tumorigenesis (APC^Min/+CSN8^fl/fl mice, vs control mice) is “an increase, but not statistically significant increase”. In the experiment with intestinal tumorigenesis (APC^Min/+CSN8^ΔIEC), the “epithelial cell proliferation (Ki-67) in the small intestines” value was “stimulated” and the “polyp numbers in the small intestines” value is “strikingly increased”. In addition, the “expression of nuclear Stat3, c-Myc and p21^(Cip1/WAF1)” value in the experiment with intestinal tumorigenesis (APC^Min/+CSN8^ΔIEC mice, to that seen in APC^Min/+CSN8^fl/fl) is “restored the expression”. Besides, the “polyp number in the colon” value in the experiment on intestinal tumorigenesis (mouse, in vivo) was “no effect”.
